pIC50: −log10 of the molar value. Read-outs that look alike come from different tables or passages of the source.
What was measured:
[1] = molecular target: T1, JAK2 (Homo sapiens, UniProt O60674); assay: Recombinant Human JAK2 Kinase Assay (TRF); assay type: biochemical; conditions: read-out: JAK2 Potency
T1 construct: host or cells: baculovirus expression system
Summary of the method: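 Baculovirus-expressed JAK2 (15 ng/ml) phosphorylated a biotinylated 15-mer peptide captured on Neutravidin, in 20 mM HEPES pH 7.2, 0.2 μM ATP, 1 mM MnCl2, 0.1% BSA, 2.5% DMSO final, 20 min at room temperature. Phosphoproduct detected by time-resolved fluorescence with Eu-N1-labelled PY100 antibody.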

[2] = molecular target: T2, ALK (Homo sapiens, UniProt Q9UM73); assay: ALK Kinase Assay (ELISA/TRF, PLC-γ substrate); assay type: biochemical; conditions: read-out: ALK Potency
T2 construct: host or cells: baculovirus expression system
Summary of the method: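 PLC-γ coat 10 μg/mL in TBS; ALK 30 ng/ml added to start; 37° C, 15 min; Eu-N1 PT66 antibody detection (TRF). IC50: % inhibition vs log10 [cpd], variable-slope sigmoidal fit.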

[3] = JAK2 kinase inhibition, 0.2 μM ATP
[4] = ALK kinase inhibition, 1 μM ATP

T1 sequence (O60674 whole entry): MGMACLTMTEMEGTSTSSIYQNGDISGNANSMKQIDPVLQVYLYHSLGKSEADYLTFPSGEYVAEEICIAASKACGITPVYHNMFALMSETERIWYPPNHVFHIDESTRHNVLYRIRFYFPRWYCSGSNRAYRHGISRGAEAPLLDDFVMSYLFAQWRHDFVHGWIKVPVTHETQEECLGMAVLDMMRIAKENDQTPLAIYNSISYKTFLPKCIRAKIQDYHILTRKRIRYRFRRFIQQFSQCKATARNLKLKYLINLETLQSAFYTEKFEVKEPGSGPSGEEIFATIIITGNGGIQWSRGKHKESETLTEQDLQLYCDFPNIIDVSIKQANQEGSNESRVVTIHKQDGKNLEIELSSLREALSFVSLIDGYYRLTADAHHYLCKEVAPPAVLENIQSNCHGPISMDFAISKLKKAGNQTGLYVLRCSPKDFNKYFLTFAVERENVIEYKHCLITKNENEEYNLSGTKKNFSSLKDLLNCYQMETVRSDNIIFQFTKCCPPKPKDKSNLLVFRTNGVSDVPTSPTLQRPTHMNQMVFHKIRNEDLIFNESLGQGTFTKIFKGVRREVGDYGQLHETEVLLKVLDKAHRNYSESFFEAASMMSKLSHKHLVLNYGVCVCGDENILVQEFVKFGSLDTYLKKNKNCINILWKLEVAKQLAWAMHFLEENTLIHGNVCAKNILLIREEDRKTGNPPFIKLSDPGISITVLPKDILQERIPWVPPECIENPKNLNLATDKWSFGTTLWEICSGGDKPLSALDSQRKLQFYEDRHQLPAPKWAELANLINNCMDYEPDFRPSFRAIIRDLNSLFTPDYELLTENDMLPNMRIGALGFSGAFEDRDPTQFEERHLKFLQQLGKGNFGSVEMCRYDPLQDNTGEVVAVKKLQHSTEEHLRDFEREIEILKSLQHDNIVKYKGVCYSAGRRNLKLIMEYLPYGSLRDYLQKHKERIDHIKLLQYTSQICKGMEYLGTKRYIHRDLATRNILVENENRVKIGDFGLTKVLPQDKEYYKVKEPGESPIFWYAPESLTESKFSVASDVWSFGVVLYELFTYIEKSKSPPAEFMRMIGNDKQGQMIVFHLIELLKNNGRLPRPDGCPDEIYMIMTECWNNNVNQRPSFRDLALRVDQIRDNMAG
T2 sequence (Q9UM73 19-1620): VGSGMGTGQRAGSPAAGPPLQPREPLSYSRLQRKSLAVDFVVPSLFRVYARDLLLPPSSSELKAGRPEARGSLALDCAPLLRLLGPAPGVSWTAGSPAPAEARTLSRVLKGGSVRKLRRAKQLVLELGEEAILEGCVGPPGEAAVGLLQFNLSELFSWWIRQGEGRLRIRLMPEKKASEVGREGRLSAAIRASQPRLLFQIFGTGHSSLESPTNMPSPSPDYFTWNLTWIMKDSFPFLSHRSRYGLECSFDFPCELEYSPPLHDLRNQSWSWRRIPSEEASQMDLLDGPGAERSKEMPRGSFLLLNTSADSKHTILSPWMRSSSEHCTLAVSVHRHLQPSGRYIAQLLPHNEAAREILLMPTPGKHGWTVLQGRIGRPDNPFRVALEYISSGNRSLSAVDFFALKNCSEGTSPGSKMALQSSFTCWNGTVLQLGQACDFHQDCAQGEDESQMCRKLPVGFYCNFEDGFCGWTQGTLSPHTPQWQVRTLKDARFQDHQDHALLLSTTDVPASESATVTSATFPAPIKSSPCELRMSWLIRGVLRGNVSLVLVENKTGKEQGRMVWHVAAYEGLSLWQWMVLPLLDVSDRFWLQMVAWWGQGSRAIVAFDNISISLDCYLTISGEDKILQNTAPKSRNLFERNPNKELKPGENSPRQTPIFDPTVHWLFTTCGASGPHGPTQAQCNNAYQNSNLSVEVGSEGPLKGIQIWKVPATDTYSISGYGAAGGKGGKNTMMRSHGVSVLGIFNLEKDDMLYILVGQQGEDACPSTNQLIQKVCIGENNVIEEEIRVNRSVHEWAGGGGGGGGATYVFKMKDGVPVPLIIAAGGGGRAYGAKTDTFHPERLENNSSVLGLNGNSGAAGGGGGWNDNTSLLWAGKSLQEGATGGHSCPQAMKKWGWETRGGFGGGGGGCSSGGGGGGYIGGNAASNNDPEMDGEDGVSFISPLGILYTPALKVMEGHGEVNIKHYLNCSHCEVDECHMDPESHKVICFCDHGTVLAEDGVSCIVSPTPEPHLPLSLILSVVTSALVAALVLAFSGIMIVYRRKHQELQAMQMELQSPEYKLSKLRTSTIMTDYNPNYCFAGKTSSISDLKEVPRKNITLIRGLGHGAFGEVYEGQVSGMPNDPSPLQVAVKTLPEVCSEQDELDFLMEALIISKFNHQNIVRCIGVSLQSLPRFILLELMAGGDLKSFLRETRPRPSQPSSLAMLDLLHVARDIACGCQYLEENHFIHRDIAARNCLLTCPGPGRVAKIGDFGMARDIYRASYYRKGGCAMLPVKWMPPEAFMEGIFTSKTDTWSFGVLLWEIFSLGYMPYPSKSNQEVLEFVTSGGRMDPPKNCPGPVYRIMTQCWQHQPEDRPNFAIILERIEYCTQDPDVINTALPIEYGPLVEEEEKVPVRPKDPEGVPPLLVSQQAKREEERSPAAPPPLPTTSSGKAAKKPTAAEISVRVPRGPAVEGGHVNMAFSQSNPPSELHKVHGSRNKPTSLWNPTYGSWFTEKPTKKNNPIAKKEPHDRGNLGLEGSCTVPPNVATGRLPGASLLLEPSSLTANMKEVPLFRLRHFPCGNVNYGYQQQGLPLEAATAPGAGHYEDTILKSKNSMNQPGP

Row | Structure (SMILES) | pIC50 ([1]; JAK2 Kinase Inhibition) | pIC50 ([2]; ALK Kinase Inhibition) | pIC50 [1, 3] | pIC50 [2, 4]
1 | O=S(=O)(c1ccc(-c2ccc3cnc(Nc4ccc(N5CCOCC5)cc4)nn23)cc1)N1CCCC1 [Example 63, (4-Morpholin-4-yl-phenyl)-{7-[4-(pyrrolidine-1-sulfonyl)-phenyl]-pyrrolo[2,1-f][1,2,4]triazin-2-yl}-amine] | > 7.00 | < 5.00 | – | –
2 | COc1cc([C@H]2CC[C@@H](N3CCOCC3)CC2)ccc1Nc1ncc2ccc(-c3ccccc3N(C)S(C)(=O)=O)n2n1 [Example 1249, N-{2-[2-({2-methoxy-4-[cis-4-(morpholin-4-yl)cyclohexyl]phenyl}amino)pyrrolo[2,1-f][1,2,4]triazin-7-yl]phenyl}-N-methylmethanesulfonamide] | – | – | 5.00 to 6.00 | > 7.00
3 | COc1c(Nc2ncc3ccc(-c4ccccc4N(C)S(C)(=O)=O)n3n2)ccc(N2CCN(C[C@H](C)O)CC2)c1F [Example 1478, N-[2-(2-{3-Fluoro-4-[4-((S)-2-hydroxy-propyl)-piperazin-1-yl]-2-methoxy-phenylamino}-pyrrolo[2,1-f][1,2,4]triazin-7-yl)-phenyl]-N-methyl-methanesulfonamide] | 5.00 to 6.00 | > 7.00 | – | –
4 | CS(=O)(=O)Nc1cccc(-c2ccc3cnc(Nc4ccc(CN5CCS(=O)(=O)CC5)cc4)nn23)c1 [Example 1052, N-(3-{2-[4-(1,1-Dioxo-1 $1(6)-thiomorpholin-4-ylmethyl)-phenylamino]-pyrrolo[2,1-f][1,2,4]triazin-7-yl}-phenyl)-methanesulfonamide] | – | – | > 7.00 | 6.00 to 7.00
